Data from patent US6572860B1, “Immunogenic conjugated polypeptide for treatment of herpes simplex virus” (CEL-SCI Corporation, priority 1997, dated 2003).
“Also recorded” adds a separate entry of the source.

What was measured:
HSV-1 [1] = test: Intraperitoneal HSV-1 challenge of vaccinated mice, sub-lethal (<LD50) challenge: symptoms and survival; assay type: in vivo, Balb/c mice; settings: for Symptomatic conditions after viral challenge (symptom score 1-5) / survival after viral challenge: Balb/c mice; for Symptomatic conditions after viral challenge (symptom score 1-5): 2 immunizations of 33 nmoles in Novasome adjuvant, i.p. sub-lethal HSV-1 challenge two weeks later; for survival after viral challenge: sub-lethal i.p. HSV-1 challenge, FIG. 2
Excerpt: An intraperitoneal challenge model using mice test animal was selected although the predominant presentation of HSV disease is not intraperitoneal since a reproducible course of disease occurs following viral challenge; since the viral challenge dose can be well defined and readily delivered by intraperitoneal injection since the symptoms are readily detected and the course of disease can be qualitatively evaluated; and since the relevant parameter of survival may be readily evaluated. Immune function studies may also be conducted in vitro to further characterize the responses to the test vaccines.
In a series of experiments, groups (12 per group) of 3 week old Balb/c female mice (Taconic Farms, Germantown, N.Y.) are immunized and test bled according to the following schedule. Schedule A: immunizations on day 0 and day 14, and two weeks later nine mice of each group are challenged moderately with a lethal dose (<LD50) of HSV (H129 clinical strain) administered intraperitoneally. In this regard, young Balb/c mice show a defined course of disease which progresses from abdominal swelling, lethargy, paraplegia, to death within 1 to 2 weeks. Therefore, the effectiveness of the vaccinations may be readily determined.
(§1) Each immunization consisted of 33 nmoles of conjugated polypeptide or non-conjugated antigenic peptide H1 (equivalent to 100 μg of the JH1 vaccine). The peptide was mixed with the Novasome liposomal adjuvant (50% v/v). The mice were immunized twice with a two week interval between inoculations. After an additional two weeks, most of the mice received an intraperitoneal challenge with the EKN clinical strain of HSV-1. The mice were evaluated daily for symptoms. […] Blood was obtained from selected mice for ELISA studies prior to immunization and prior to virus challenge. The results are shown in FIG. 1 for symptom (on a daily basis) and in FIG. 2 for survival following vaccination and sub-lethal challenge.
In FIG. 1 symptoms were scored daily as:
(§2) 1. non-specific mild symptoms
(§3) 2. mild swelling of the abdomen
(§4) 3. significant swelling of the abdomen and malaise

[2] = tested on: ultraviolet inactivated HSV; test: Delayed type hypersensitivity (DTH), ear pinna swelling at 48 hours (FIG. 3); assay type: in vivo, Balb/c mice; settings: vaccinated unchallenged mice, 4 weeks after last immunization, 48 hours after injection of UV inactivated HSV
Experimental: as §1
DTH response was evaluated 4 weeks after the last immunization for the vaccinated mice and three unvaccinated HSV challenged mice which had recovered from disease (C). Swelling of the right ear pinna was measured at 48 hours following injection of ultraviolet inactivated HSV and compared to the left ear pinna which had been injected with buffer.
In another series of parallel experiments Balb/c female mice (n=9) were vaccinated with the H1 peptide or the JH1, GH1 or LH1 conjugated polypeptides according to the same protocol as for the HSV-1 challenge experiment described above.

HSV-1 [3] = test: Intraperitoneal challenge of vaccinated mice with an LD50 of HSV-1: symptoms and survival; assay type: in vivo; settings: Balb/c mice 4 wk old, n=6, vaccinated twice, challenged with an LD50 of HSV-1; for disease symptoms (symptom score 1-5): FIG. 4; for survival / death: FIG. 5
Experimental: Similar tests as described above were carried out. Balb/c mice (4 wk old) (n=6) were unvaccinated (NO VAC) or vaccinated and revaccinated two weeks later with the H1 peptide or the indicated conjugated polypeptide. The mice were then challenged two weeks later with an LD50 of HSV-1. Symptoms were scored daily as:
as §2, §3, §4
The results are shown in FIG. 4 for symptoms, in FIG. 5 for survival and in FIG. 6 for DTH.

[4] = tested on: ultraviolet inactivated HSV; test: Delayed type hypersensitivity (DTH), ear pinna swelling at 24, 48 and 96 hours (FIG. 6); assay type: in vivo, Balb/c mice; settings: 4 weeks after last immunization, 24, 48 and 96 hours after injection of UV inactivated HSV
Experimental: DTH response was evaluated 4 weeks after the last immunization for the vaccinated mice and three unvaccinated HSV challenged mice which had recovered from disease (Ctrl)
(§5) The protocol used in this experiment differed slightly from that of FIG. 3. Swelling in the right ear pinna was measured by micrometer prior to and at 24, 48 and 96 hours following injection of ultraviolet inactivated HSV and compared to the left ear pinna which had been injected with an uninfected Vero cell extract.

infected cell extracts = test: ELISA of serum antibody response, infected cell extracts as antigen (antivirus response); assay type: in vivo, C57BI6 mice; settings: vaccinated and HSV-1 challenged mice, pooled serum, 2 weeks after virus challenge
Experimental: (§6) The antibody responses of vaccinated and unchallenged mice, vaccinated and challenged mice and unvaccinated and challenged mice were measured by ELISA assay. Serum was obtained 7 weeks after the initial immunization or 2 weeks after the virus challenge. B1 peptide or infected cell extracts were bound to the ELISA plate as antigen. Results are shown in Table 3 and were taken from pooled serum taken from 2 or 3 mice. The results were corrected for non-specific responses by subtracting the absorbance obtained towards an unrelated antigen.

B1 peptide = test: ELISA of serum antibody response, B1 peptide as antigen; assay type: in vivo, C57BI6 mice
Experimental: as §6

[5] = tested on: ultraviolet inactivated HSV; test: DTH tests on unchallenged mice immunized with B1 peptides; assay type: in vivo; settings: 3 unchallenged immunized C57BI6 mice
Experimental: as §5

HSV-1 [6] = test: HSV-1 challenge of mice vaccinated with B1 peptides: survival (FIG. 7); assay type: in vivo; settings: C57BI6 mice; for survival (mice surviving of 9): after day 8
Excerpt: In order to further establish the effectiveness of conjugated peptides according to this invention as effective vaccines for treatment of herpes simplex virus, the HSV epitope B1, which is a T cell epitope (aa 498-505, SSIEFARL) of glycoprotein B found in both HSV-1 or HSV-2 (see Hanke, et al, J. Virol. 65:1177-86; and Bonneau, et al, Virology 195:62-70) was selected and evaluated with either peptide J or peptide G or peptide L as described above. Namely, the conjugated peptides GB1, JB1 and LB1, as described in Table 1 above, were tested under the same conditions as previously described except that in place of the Balb/c mice, C57BI6 mice were vaccinated with the B1 conjugated peptides or non-conjugated B1 peptide (SEQ ID NO:4). The mice immunized with the B1 peptide or with the conjugated peptide LB1 were not protected from HSV-1 challenge (0 of 9 or 1 of 9 survival, respectively, after day 8) and, in fact the B1 and LB1 immunized mice fared worse than the control (unvaccinated) mice (2 of 9 survival after day 8).

peptide H1 = test: ELISA of antibody responses to peptide H1; assay type: in vivo; settings: immunized Balb/c mice
Experimental: as §1

[7] = 9 challenged mice per group, sub-lethal HSV-1 challenge, FIG. 1
[8] = vaccinated and unchallenged mice, pooled serum of 2 or 3 mice, 7 weeks after initial immunization

Substance: DLL KN GER IEK VEG GGL YRT FAG NPR A (SEQ ID NO:10) (DLLKNGERIEKVEGGGLYRTFAGNPRA) [JH1, conjugated polypeptide of Peptide J (β-2 microglobulin), GGG spacer and peptide H1 of ICP27]
- number of mice showing significant symptoms (HSV-1 [1]; [7]): two
- number of mice that died (HSV-1 [1]; [7]): one
- Symptomatic conditions after viral challenge (symptom score 1-5) (HSV-1 [1]; FIG. 1): protected from disease
- survival after viral challenge (HSV-1 [1]): maximal survival
- DTH response (redness and swelling of ear pinna) [2]: DTH was observed
- disease symptoms (symptom score 1-5) (HSV-1 [3]): protected from disease symptoms
- survival / death (HSV-1 [3]): protected from disease symptoms and death
- DTH response (redness and swelling of ear pinna) [4]: DTH was observed on each day

Substance: DLL KNG ERI EKV EGG GSS IEF ARL (SEQ ID NO:16) (DLLKNGERIEKVEGGGSSGSSIEFARL) [JB1, conjugated polypeptide of Peptide J, GGG spacer and peptide B1 of glycoprotein B]
- ANTIVIRUS RESPONSE (ELISA absorbance, corrected for non-specific response) (infected cell extracts): 0.445
- B1 PEPTIDE RESPONSE (ELISA absorbance, corrected for non-specific response) (B1 peptide; [8]): 0.025
- DTH response [5]: exhibited a DTH response
- protection from HSV-1 challenge (HSV-1 [6]): partial protection
- survival (HSV-1 [6]): 44.4%
- survival (mice surviving of 9) (HSV-1 [6]): 4 of 9

Substance: LHG PEI LDV PST GGG LYR TFA GNP RA (SEQ ID NO:13) (LHGPEILDVPSTGGGLYRTFAGNPRA) [LH1, conjugated polypeptide of Peptide L, GGG spacer and peptide H1]
- Symptomatic conditions after viral challenge (symptom score 1-5) (HSV-1 [1]; FIG. 1): more severe symptoms throughout the course of infection and death; also recorded: seemed to exacerbate the disease symptoms
- survival after viral challenge (HSV-1 [1]): seemed to exacerbate the disease symptoms
- DTH response (redness and swelling of ear pinna) [2]: not
- disease symptoms (symptom score 1-5) (HSV-1 [3]): severe symptoms
- survival / death (HSV-1 [3]): death
- DTH response (redness and swelling of ear pinna) [4]: Some swelling but no redness was observed for some but not all of the mice

Substance: LHG PEI LDV PST GGG SSI EFA RL (SEQ ID NO:18) (LHGPEILDVPSTGGGSSIEFARL) [LB1, conjugated polypeptide of Peptide L, GGG spacer and peptide B1]
- B1 PEPTIDE RESPONSE (ELISA absorbance, corrected for non-specific response) (B1 peptide; [8]): 0.031
- protection from HSV-1 challenge (HSV-1 [6]): not protected
- survival (mice surviving of 9) (HSV-1 [6]): 1 of 9

Substance: LYRTFAGNPRA (SEQ ID NO:1) [H1, non-conjugated antigenic peptide, amino acid residues 322 to 332 of the ICP27 protein of HSV-1, reference compound]
- Symptomatic conditions after viral challenge (symptom score 1-5) (HSV-1 [1]; FIG. 1): more severe symptoms throughout the course of infection and death; also recorded: seemed to exacerbate the disease symptoms
- survival after viral challenge (HSV-1 [1]): seemed to exacerbate the disease symptoms
- DTH response (redness and swelling of ear pinna) [2]: not
- disease symptoms (symptom score 1-5) (HSV-1 [3]): severe symptoms
- survival / death (HSV-1 [3]): death
- Antibody responses to the antigenic peptide by ELISA (peptide H1): undetectable
- DTH response (redness and swelling of ear pinna) [4]: Some swelling but no redness was observed for some but not all of the mice

Substance: NGQ EEK AGV VST GLI GGG LYR TFA GNP RA (SEQ ID NO:12) (NGQEEKAGVVSTGLIGGGLYRTFAGNPRA) [GH1, conjugated polypeptide of Peptide G, GGG spacer and peptide H1]
- Symptomatic conditions after viral challenge (symptom score 1-5) (HSV-1 [1]; FIG. 1): more severe symptoms throughout the course of infection and death; also recorded: seemed to exacerbate the disease symptoms
- survival after viral challenge (HSV-1 [1]): seemed to exacerbate the disease symptoms
- DTH response (redness and swelling of ear pinna) [2]: not
- disease symptoms (symptom score 1-5) (HSV-1 [3]): severe symptoms
- survival / death (HSV-1 [3]): death
- DTH response (redness and swelling of ear pinna) [4]: Some swelling but no redness was observed for some but not all of the mice

Substance: NGQ EEK AGV VST GLI GGG SSI EFA RL (SEQ ID NO:17) (NGQEEKAGVVSTGLIGGGSSIEFARL) [GB1, conjugated polypeptide of Peptide G, GGG spacer and peptide B1]
- B1 PEPTIDE RESPONSE (ELISA absorbance, corrected for non-specific response) (B1 peptide; vaccinated and HSV-1 challenged mice, pooled serum, 2 weeks after virus challenge): 0.017
- B1 PEPTIDE RESPONSE (ELISA absorbance, corrected for non-specific response) (B1 peptide; [8]): 0.035
- DTH response [5]: did not exhibit a DTH response
- protection from HSV-1 challenge (HSV-1 [6]): partial protection
- survival (HSV-1 [6]): 55.5%
- survival (mice surviving of 9) (HSV-1 [6]): 5 of 9

Substance: SSIEFARL (SEQ ID NO:4) [B1, non-conjugated antigenic peptide, amino acid residues 498 to 505 from glycoprotein B of HSV-1, reference compound]
- B1 PEPTIDE RESPONSE (ELISA absorbance, corrected for non-specific response) (B1 peptide; [8]): 0.031
- DTH response [5]: did not exhibit a DTH response
- protection from HSV-1 challenge (HSV-1 [6]): not protected
- survival (mice surviving of 9) (HSV-1 [6]): 0 of 9
